In patent publication US9340577B2, “HLA binding motifs and peptides and their uses” (priority 1992, dated 2016):
pIC50: −log10 of the molar value. No end group written: not given here.

Experiments:
Test in all cases: biochemical
DRB1*1101 = DRB1*1101 (Homo sapiens, UniProt P01903+P01911, A100R/A169T/A87E/I96F/K41T/L162R/M171V/P40S/Q125H/Q178H/Q39Y/Q99D/R42S/S66Y/T262R/V115G/W38E); conditions: Binding affinity DRB1 *1101
DRB1*0802 = DRB1*0802 (Homo sapiens, UniProt P01903+P01911, A100R/A103L/A169T/F76Y/H45Y/I96F/K41T/L162R/M171V/P40S/Q125H/Q178H/Q39Y/Q99D/R218S/R42G/S66Y/V115G/W38E); format: binding
DRB1*1302 = DRB1*1302 (Homo sapiens, UniProt P01903+P01911, A100E/A169T/K41T/L162R/M171V/P40S/Q125H/Q178H/Q39Y/Q99D/R42S/S66N/T262R/V115G/W38E/Y61H); format: binding
Sequence of DRB1*1302 (P01903 26-254 limits assumed, other chains not shown): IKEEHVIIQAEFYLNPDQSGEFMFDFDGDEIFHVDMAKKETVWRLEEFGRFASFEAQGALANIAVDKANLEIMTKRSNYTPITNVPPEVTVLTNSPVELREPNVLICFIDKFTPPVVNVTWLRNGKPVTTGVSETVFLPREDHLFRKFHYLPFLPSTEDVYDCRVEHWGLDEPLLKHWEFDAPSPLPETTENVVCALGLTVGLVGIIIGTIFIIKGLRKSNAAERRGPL

DR1 (DRB1*0101) = DR1 (DRB1*0101) (Homo sapiens, UniProt P01903+P01911, A100R/D57E/F55L/F60I/F76Y/I96L/L162R/M171V/P40L/Q125E/R42F/V115G/Y59C); format: binding
DRB1*0901 = DRB1*0901 (Homo sapiens, UniProt P01903+P01911, A100R/A103E/D57H/D86V/F55Y/F60I/F76Y/I96F/K127E/L162R/M171V/P40D/Q125H/Q99R/R33Q/R42F/S133A/S66N/T210M/V115G/W38K/Y107V/Y59G/Y89S); format: binding
DRB1*0301 = DRB1*0301 (Homo sapiens, UniProt P01903+P01911, A100K/A102G/A103R/A169T/F55Y/I96L/K41T/L162R/M171V/P40S/Q125H/Q178H/Q39Y/R42S/S66N/T106N/T262R/W38E/Y61H); format: binding
Sequence of DRB1*0301 (P01903 26-254 limits assumed, other chains not shown): as above

DRB1*1201 = DRB1*1201 (Homo sapiens, UniProt P01903+P01911, A100R/A169T/D57E/D86V/F55L/H45Y/K41T/L162R/M171V/P40S/Q125H/Q178H/Q39Y/Q99D/R42G/S66L/T262R/V114A/V67L/W38E/Y59H/Y61H/Y89S); format: binding
DRB1*0405 = DRB1*0405 (Homo sapiens, UniProt P01903+P01911, A100R/A169T/D86S/F76Y/I96L/K127E/L162R/M171V/N62H/P40V/Q125Y/R42H/S133A/S149N/S66Y/V115G/V209L/W38E); format: binding
DRB5*0101 = DRB5*0101 (Homo sapiens, UniProt P01903+Q30154); conditions: Binding affinity DRB5 *0101
DR7 (DRB1*0701) = DR7 (DRB1*0701) (Homo sapiens, UniProt P01903+P01911, A100R/A102G/A103Q/D57E/D86V/E43K/F76Y/K127E/L162R/M171V/P40G/Q125H/Q99D/R33Q/R42Y/R54Q/S133A/S66F/T210M/V115G/Y107V/Y59L/Y89S); format: binding
DRB1*1501 = DRB1*1501 (Homo sapiens, UniProt P01903+P01911); format: binding
DRB4*0101 = DRB4*0101 (Homo sapiens, UniProt P01903+P13762, G164S); format: binding
DR4w4 (DRB1*0401) = DR4w4 (DRB1*0401) (Homo sapiens, UniProt P01903+P01911, A100K/A169T/F76Y/I96L/K127E/L162R/M171V/N62H/P40V/Q125Y/R42H/S133A/S149N/S66Y/V115G/V209L/W38E); format: binding

Sequence of DRB1*1101 (P01903 26-254 limits assumed, other chains not shown): as above

LLEFIDDSMENSIQA [Peptide 90.0077]
pIC50 (DRB1*1101): 5.12
pIC50 (DRB1*0802): < 4.70
pIC50 (DRB1*1302): < 4.70
pIC50 (DR1 (DRB1*0101)): 6.30
pIC50 (DRB1*0901): 5.18
pIC50 (DRB1*0301): 6.29
pIC50 (DRB1*1201): < 4.70
pIC50 (DRB1*0405): 6.27
pIC50 (DRB5*0101): < 4.70
pIC50 (DR7 (DRB1*0701)): < 4.70
pIC50 (DRB1*1501): 5.21
pIC50 (DRB4*0101): 6.13

LNTVKIPNTVSVSTG [Peptide 89.0178]
pIC50 (DRB1*1101): 6.01
pIC50 (DRB1*0802): 5.43
pIC50 (DR1 (DRB1*0101)): 7.29
pIC50 (DR4w4 (DRB1*0401)): 6.08
pIC50 (DRB1*0901): 5.94
pIC50 (DRB1*0301): 7.19
pIC50 (DRB1*1201): 6.44
pIC50 (DRB1*0405): 5.52
pIC50 (DR7 (DRB1*0701)): 5.26
pIC50 (DRB1*1501): 4.90
pIC50 (DRB4*0101): 5.59

MLAVFKDTYGLSFTD [Peptide 90.0050]
pIC50 (DRB1*1101): 5.64
pIC50 (DRB1*0802): 5.10
pIC50 (DRB1*1302): 5.90
pIC50 (DR4w4 (DRB1*0401)): 6.08
pIC50 (DRB1*0901): 5.80
pIC50 (DRB1*0301): 7.35
pIC50 (DRB1*1201): 5.13
pIC50 (DRB1*0405): < 4.70
pIC50 (DRB5*0101): 4.74
pIC50 (DRB4*0101): < 4.70

PEWIQRLTIIQHGID [Peptide 89.0031]
pIC50 (DRB1*1101): 6.22
pIC50 (DRB1*0802): 6.73
pIC50 (DRB1*1302): 6.25
pIC50 (DR1 (DRB1*0101)): 6.06
pIC50 (DRB1*0901): 5.35
pIC50 (DRB1*0301): 5.36
pIC50 (DRB1*1201): 6.28
pIC50 (DRB1*0405): 6.88
pIC50 (DRB5*0101): 6.62
pIC50 (DRB1*1501): 5.47
pIC50 (DRB4*0101): 8.48

QMFLGTVKIPPTVQI [Peptide 89.0188]
pIC50 (DRB1*1101): 6.32
pIC50 (DRB1*0802): 6.30
pIC50 (DRB1*0901): < 4.70
pIC50 (DRB1*0301): 6.80
pIC50 (DRB1*1201): 6.26
pIC50 (DRB1*0405): 6.21
pIC50 (DRB5*0101): 5.35
pIC50 (DR7 (DRB1*0701)): 5.33
pIC50 (DRB1*1501): 6.68
pIC50 (DRB4*0101): 7.89

RETIEKLLSKLLCVS [Peptide 89.0006]
pIC50 (DRB1*1101): 6.15
pIC50 (DRB1*0802): 6.19
pIC50 (DRB1*1302): 6.22
pIC50 (DR1 (DRB1*0101)): 6.70
pIC50 (DR4w4 (DRB1*0401)): < 4.70
pIC50 (DRB1*0901): 5.19
pIC50 (DRB1*0301): 4.89
pIC50 (DRB1*1201): 6.28
pIC50 (DRB1*0405): 5.21
pIC50 (DRB5*0101): 5.15
pIC50 (DR7 (DRB1*0701)): 6.73
pIC50 (DRB1*1501): 6.63

TGWFEVEAVIERRTG [Peptide 90.0075]
pIC50 (DRB1*1302): < 4.70
pIC50 (DR1 (DRB1*0101)): 4.77
pIC50 (DRB1*0901): < 4.70
pIC50 (DRB1*0301): 7.77
pIC50 (DRB1*1201): < 4.70
pIC50 (DRB1*0405): 5.21
pIC50 (DRB5*0101): 6.44
pIC50 (DR7 (DRB1*0701)): 5.31
pIC50 (DRB1*1501): < 4.70
pIC50 (DRB4*0101): < 4.70

VDFIVNDNDYLTQAE [Peptide 90.0031]
pIC50 (DRB1*1101): < 4.70
pIC50 (DRB1*0802): < 4.70
pIC50 (DRB1*1302): 6.69
pIC50 (DR1 (DRB1*0101)): 5.55
pIC50 (DRB1*0901): < 4.70
pIC50 (DRB1*0301): 7.38
pIC50 (DRB1*1201): 4.77
pIC50 (DRB1*0405): < 4.70
pIC50 (DRB5*0101): < 4.70
pIC50 (DR7 (DRB1*0701)): 5.14
pIC50 (DRB1*1501): < 4.70
pIC50 (DRB4*0101): 6.14

VTVFTFPHAFPFDKN [Peptide 89.0092]
pIC50 (DRB1*1302): < 4.70
pIC50 (DRB1*0901): 7.48
pIC50 (DRB1*0301): < 4.70
pIC50 (DRB1*1201): 6.88
pIC50 (DRB1*0405): 4.99
pIC50 (DRB5*0101): 6.65
pIC50 (DR7 (DRB1*0701)): 8.26
pIC50 (DRB1*1501): 7.20
pIC50 (DRB4*0101): 5.83

WKLIRMECAIMYTAR [Peptide 90.0245]
pIC50 (DRB1*0802): 5.04
pIC50 (DR4w4 (DRB1*0401)): 6.48
pIC50 (DRB1*0901): 5.31
pIC50 (DRB1*0301): 6.69
pIC50 (DRB1*1201): 6.71
pIC50 (DRB1*0405): 6.11
pIC50 (DRB5*0101): 5.91
pIC50 (DR7 (DRB1*0701)): 5.34
pIC50 (DRB1*1501): 5.68
pIC50 (DRB4*0101): 7.57

WQLIRLENAILFTAR [Peptide 90.0211]
pIC50 (DRB1*0802): 5.73
pIC50 (DRB1*1302): 8.57
pIC50 (DR1 (DRB1*0101)): 8.39
pIC50 (DRB1*0901): 5.64
pIC50 (DRB1*0301): 7.39
pIC50 (DRB1*1201): 7.00
pIC50 (DRB1*0405): 6.51
pIC50 (DRB5*0101): 6.35
pIC50 (DR7 (DRB1*0701)): 7.05
pIC50 (DRB1*1501): 7.36
pIC50 (DRB4*0101): 7.70
